Results as given in patent publication US7563791B2, “Pyrrolotriazine derivatives useful for treating hyper-proliferative disorders and diseases associated with angiogenesis” (Bayer Pharmaceuticals Corporation, priority 2004, dated 2009).

Tested on: VEGF stimulated Phospho-ERK in HUVEC
Experiment: Growth factor stimulated p-ERK assay in HUVECs (VEGF stimulation, ERK1/2 Bioplex)
Type: cell-based
Conditions: Homo sapiens, compound 2 hrs, then 50 ng/ml VEGF 10 min; for inhibition at 0.1 µM: @ 100 nM
Method: Growth Factor Stimulated p-ERK assay in HUVECs
Exponentially growing human endothelial HUVECs cells (human umbilical vein endothelial cells, cat# CC-2517, Cambrex, Walkersville, Md.) were seeded at twenty five thousand cells/well in 96 well plates in EBM-2 MV medium with growth factors (cat# CC-3202, Cambrex) and grown at 37° C. in 5% CO2. Sixteen hours post-plating, the cells were changed to serum-free medium (RPMI 1640 containing 0.1% BSA (bovine serum albumin) and compounds were added at different concentrations for 2 hrs, after which the cells were stimulated for 10 min with 50 ng/ml of either VEGF (vascular endothelial growth factor, Protein Sciences, Meriden, Conn.) or bFGF (basic fibroblast growth factor cat# PHG0026, Biosource International, Camarillo, Calif.). The rest of the assay was performed per manufacturer indications for the ERK½ Bioplex assay (cat#171-304004, Bio-Rad, Hercules, Calif.). After removing culture medium by aspiration, the cells were quickly rinsed with 100 μl of cell wash buffer A to stop treatment reaction. Eighty microliters of cell lysis buffer were then immediately added to each well of the 96 well plate which was put on ice. Cells in each well were lysed by pipetting up and down 5 times with a multi-channel pipet. The plate was then agitated on a microtiter plate shaker at 300 rpm for 20 min at 4° C. Cellular debris were pelleted by centrifugation at 4500 g for 15 min at 4° C. and the supernatant was collected. Forty five microliters of supernatant was diluted with an equal volume of Bio-Plex phosphoprotein assay Buffer B, The coupled and color coated beads were added into a 96 well filter plate, and the prepared lysates were added. The beads and lysate mixture was incubated at room temperature for 15-18 hrs. The following day, the plate was vacuum-filtered and then washed 3×. Twenty-five microliters of detection antibody solution were added to each well and the plate was then incubated for 30 min at room temperature. The plate was then vaccum-filtered and washed as described previously. Fifty microliters of streptavidin-PE solution was added to each well, the plate was incubated for 10 min at room temperature and then was then vaccum-filtered and washed as described above. One hundred twenty-five microliters of resuspension buffer was added to each well and data were acquired on the Luminex 100 instrument (Bio-Rad).

Row | Compound | inhibition at 0.1 µM [%] | inhibition at 1 µM [%] | inhibition at 10 µM [%]
1 | CCOC(=O)c1cn2ncnc(N)c2c1-c1ccc(NC(=O)Nc2ccccc2)cc1 [Example 23, ethyl 4-amino-5-{4-[(anilinocarbonyl)amino]phenyl}pyrrolo[2,1-f][1,2,4]triazine-6-carboxylate] | > 50 | – | –
2 | Nc1ncnn2cc(CCCN3CCOCC3)c(-c3ccc(NC(=O)Nc4cc(C(F)(F)F)ccc4F)cc3)c12 [Example 66, N-{4-[4-amino-6-(3-morpholin-4-ylpropyl)pyrrolo[2,1-f][1,2,4]triazin-5-yl]phenyl}-N′-[2-fluoro-5-(trifluoromethyl)phenyl]urea] | < 50 | > 50 | –
3 | Nc1ncnn2cc(CNc3cccnc3)c(-c3ccc(NC(=O)Nc4cc(C(F)(F)F)ccc4F)cc3)c12 [Example 47, N-(4-{4-amino-6-[(pyridin-3-ylamino)methyl]pyrrolo[2,1-f][1,2,4]triazin-5-yl}phenyl)-N′-[2-fluoro-5-(trifluoromethyl)phenyl]urea] | < 50 | > 50 | –
4 | CCOC(=O)c1cn2ncnc(N)c2c1-c1ccc(NC(=O)Nc2cc(C(F)(F)F)ccc2N2CCOCC2)cc1 [Example 27, ethyl 4-amino-5-{4-[({[2-morpholin-4-yl-5-(trifluoromethyl)phenyl]amino}carbonyl)amino]phenyl}pyrrolo[2,1-f][1,2,4]triazine-6-carboxylate] | > 50 | – | –
5 | Cc1cn2ncnc(N)c2c1-c1ccc(NC(=O)Nc2cc(C(F)(F)F)ccc2F)cc1 [Example 85, N-[4-(4-amino-6-methylpyrrolo[2,1-f][1,2,4]triazin-5-yl)phenyl]-N′-[2-fluoro-5-(trifluoromethyl)phenyl]urea] | < 50 | > 50 | –
6 | CCOC(=O)c1cn2ncnc(N)c2c1-c1ccc(NC(=O)Nc2cccc(OCCN(CC)CC)c2)cc1 [Example 98, ethyl 4-amino-5-(4-{[({3-[2-(diethylamino)ethoxy]phenyl}amino)carbonyl]amino}phenyl)pyrrolo[2,1-f][1,2,4]triazine-6-carboxylate] | < 50 | < 50 | > 50
7 | CCOC(=O)c1cn2ncnc(N)c2c1-c1ccc(NC(=O)Nc2ccc(OC(F)(F)F)cc2)cc1 [Example 11, ethyl 4-amino-5-{4-[({[4-(trifluoromethoxy)phenyl]amino}carbonyl)amino]phenyl}pyrrolo[2,1-f][1,2,4]triazine-6-carboxylate] | < 50 | > 50 | –
8 | CCOC(=O)c1cn2ncnc(N)c2c1-c1ccc(NC(=O)Nc2cc(OC)ncn2)cc1 [Example 29, ethyl 4-amino-5-[4-({[(6-methoxypyrimidin-4-yl)amino]carbonyl}amino)phenyl]pyrrolo[2,1-f][1,2,4]triazine-6-carboxylate] | < 50 | > 50 | –
9 | Nc1ncnn2cc(C(=O)NCCCN3CCCC3)c(-c3ccc(NC(=O)Nc4cc(C(F)(F)F)ccc4F)cc3)c12 [Example 62, 4-amino-5-{4-[({[2-fluoro-5-(trifluoromethyl)phenyl]amino}carbonyl)amino]phenyl}-N-(3-pyrrolidin-1-ylpropyl)pyrrolo[2,1-f][1,2,4]triazine-6-carboxamide] | < 50 | < 50 | > 50
10 | N#Cc1cn2ncnc(N)c2c1-c1ccc(NC(=O)Nc2cccc(C(F)(F)F)n2)cc1 [Example 168, N-[4-(4-amino-6-cyanopyrrolo[2,1-f][1,2,4]triazin-5-yl)phenyl]-N′-[6-(trifluoromethyl)pyridin-2-yl]urea] | < 50 | > 50 | –
11 | CCOC(=O)c1cn2ncnc(N)c2c1-c1ccc(NC(=O)Nc2cc(C(F)(F)F)cc(C(F)(F)F)c2)cc1 [Example 26, ethyl 4-amino-5-{4-[({[3,5-bis(trifluoromethyl)phenyl]amino}carbonyl)amino]phenyl}pyrrolo[2,1-f][1,2,4]triazine-6-carboxylate] | < 50 | > 50 | –
12 | CCOC(=O)c1cn2ncnc(N)c2c1-c1ccc(NC(=O)Nc2cccc(OC(F)(F)F)c2)cc1 [Example 9, ethyl 4-amino-5-{4-[({[3-(trifluoromethoxy)phenyl]amino}carbonyl)amino]phenyl}pyrrolo[2,1-f][1,2,4]triazine-6-carboxylate] | > 50 | – | –
13 | CCOC(=O)c1cn2ncnc(N)c2c1-c1ccc(NC(=O)Nc2ccc(OC)c(CN3CCOCC3)c2)cc1 [Example 96, ethyl 4-amino-5-{4-[({[4-methoxy-3-(morpholin-4-ylmethyl)phenyl]amino}carbonyl)amino]phenyl}pyrrolo[2,1-f][1,2,4]triazine-6-carboxylate] | < 50 | < 50 | > 50
14 | CC(C)(CO)NC(=O)c1cn2ncnc(N)c2c1-c1ccc(NC(=O)Nc2cc(C(F)(F)F)ccc2Cl)cc1 [Example 143, 4-amino-5-{4-[({[2-chloro-5-(trifluoromethyl)phenyl]amino}carbonyl)amino]phenyl}-N-(2-hydroxy-1,1-dimethylethyl)pyrrolo[2,1-f][1,2,4]triazine-6-carboxamide] | < 50 | > 50 | –
15 | CCOC(=O)c1cn2ncnc(N)c2c1-c1ccc(NC(=O)Nc2ccc3c(c2)OC(F)(F)C(F)(F)O3)cc1 [Example 22, ethyl 4-amino-5-[4-({[(2,2,3,3-tetrafluoro-2,3-dihydro-1,4-benzodioxin-6-yl)amino]carbonyl}amino)phenyl]pyrrolo[2,1-f][1,2,4]triazine-6-carboxylate] | < 50 | > 50 | –
16 | CCOC(=O)c1cn2ncnc(N)c2c1-c1ccc(NC(=O)Nc2ccc3c(cnn3C)c2)cc1 [Example 12] | > 50 | – | –
17 | COCCNC(=O)c1cn2ncnc(N)c2c1-c1ccc(NC(=O)Nc2cccc(SC(F)(F)F)c2)cc1 [Example 131, 4-amino-N-(2-methoxyethyl)-5-(4-{[({3-[(trifluoromethyl)thio]phenyl}amino)carbonyl]amino}phenyl)pyrrolo[2,1-f][1,2,4]triazine-6-carboxamide] | < 50 | > 50 | –
18 | CCOC(=O)c1cn2ncnc(N)c2c1-c1ccc(NC(=O)Nc2cc(C(F)(F)F)ccc2F)cc1 [Example 1, ethyl 4-amino-5-{4-[({[2-fluoro-5-(trifluoromethyl)phenyl]amino}carbonyl)amino]phenyl}pyrrolo[2,1-f][1,2,4]triazine-6-carboxylate] | > 50 | – | –
19 | NC(=O)c1cn2ncnc(N)c2c1-c1ccc(NC(=O)Nc2cc(C(F)(F)F)ccc2F)cc1 [Example 104, 4-amino-5-{4-[({[2-fluoro-5-(trifluoromethyl)phenyl]amino}carbonyl)amino]phenyl}pyrrolo[2,1-f][1,2,4]triazine-6-carboxamide] | < 50 | < 50 | > 50
20 | CC(C)(C)NC(=O)c1cn2ncnc(N)c2c1-c1ccc(NC(=O)Nc2cc(C(F)(F)F)ccc2F)cc1 [Example 75, 4-amino-N-(tert-butyl)-5-{4-[({[2-fluoro-5-(trifluoromethyl)phenyl]amino}carbonyl)amino]phenyl}pyrrolo[2,1-f][1,2,4]triazine-6-carboxamide] | < 50 | > 50 | –
